This note sets out measurements from ChEMBL document CHEMBL4130363, “Synthesis and pharmacological evaluation of benzamide derivatives as potent and selective sigma-1 protein ligands” (Eur J Med Chem, 2017).

In general, inhibition refers to the change of the read-out against control, counted positive when it falls.

What all share (format): functional
Assay [1] has as its target D(1A) dopamine receptor (Homo sapiens) (UniProt P21728). In words: Antagonist activity at recombinant human dopamine D1 receptor assessed as inhibition of agonist-induced cAMP induction at 10 uM by HTRF assay. On the technique in general: Time-resolved FRET reads energy transfer from a long-lived donor to a nearby acceptor.
For assay [2], the target named is T1, Substance-K receptor (Homo sapiens) (UniProt P21452).
T1 sequence (whole entry): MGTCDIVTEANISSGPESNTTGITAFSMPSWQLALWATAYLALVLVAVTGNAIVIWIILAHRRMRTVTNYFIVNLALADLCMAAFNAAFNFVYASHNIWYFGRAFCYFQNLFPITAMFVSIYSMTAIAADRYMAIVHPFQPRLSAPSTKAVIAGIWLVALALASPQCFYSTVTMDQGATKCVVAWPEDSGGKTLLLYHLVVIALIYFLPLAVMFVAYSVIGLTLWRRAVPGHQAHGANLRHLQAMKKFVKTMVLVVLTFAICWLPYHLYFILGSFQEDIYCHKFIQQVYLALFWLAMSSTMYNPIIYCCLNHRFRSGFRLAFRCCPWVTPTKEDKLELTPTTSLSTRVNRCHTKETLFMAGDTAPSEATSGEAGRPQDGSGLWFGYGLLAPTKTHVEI
Briefly: Antagonist activity at recombinant human NK2R assessed as inhibition of agonist-induced effect at 10 uM by aequorin reporter based assay.

In assay [3] the target is T2, Muscarinic acetylcholine receptor M2 (Homo sapiens) (UniProt P08172).
T2 sequence (whole entry): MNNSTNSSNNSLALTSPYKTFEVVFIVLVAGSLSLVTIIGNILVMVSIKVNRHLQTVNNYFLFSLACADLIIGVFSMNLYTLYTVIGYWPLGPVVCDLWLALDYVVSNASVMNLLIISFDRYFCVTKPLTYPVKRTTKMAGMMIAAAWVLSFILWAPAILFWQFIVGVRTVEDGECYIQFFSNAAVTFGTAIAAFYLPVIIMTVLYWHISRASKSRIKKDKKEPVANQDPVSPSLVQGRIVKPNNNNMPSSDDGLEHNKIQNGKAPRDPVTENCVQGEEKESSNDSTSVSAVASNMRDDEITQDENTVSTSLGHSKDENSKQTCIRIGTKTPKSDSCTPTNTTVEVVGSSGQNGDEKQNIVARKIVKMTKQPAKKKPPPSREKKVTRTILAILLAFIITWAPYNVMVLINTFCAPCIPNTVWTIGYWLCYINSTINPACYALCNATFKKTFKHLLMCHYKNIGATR
In words: Agonist activity at recombinant human muscarinic M2 receptor at 10 uM by GTPgamma[35S] binding-based assay relative to agonist.

For assay [4], the target named is T3, 5-hydroxytryptamine receptor 1A (Homo sapiens) (UniProt P08908).
T3 sequence (whole entry): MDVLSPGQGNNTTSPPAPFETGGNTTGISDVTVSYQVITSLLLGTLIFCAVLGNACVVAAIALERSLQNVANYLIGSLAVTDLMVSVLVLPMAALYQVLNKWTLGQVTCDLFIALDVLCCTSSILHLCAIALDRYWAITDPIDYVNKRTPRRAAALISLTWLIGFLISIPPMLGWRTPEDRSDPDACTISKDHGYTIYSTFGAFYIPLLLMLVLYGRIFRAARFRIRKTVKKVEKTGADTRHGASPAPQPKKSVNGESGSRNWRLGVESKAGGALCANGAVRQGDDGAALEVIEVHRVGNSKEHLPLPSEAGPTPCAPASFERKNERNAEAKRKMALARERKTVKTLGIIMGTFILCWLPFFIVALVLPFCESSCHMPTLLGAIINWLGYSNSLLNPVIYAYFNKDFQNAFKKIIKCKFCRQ
Briefly: Antagonist activity at recombinant human 5-HT1A assessed as inhibition of agonist-induced cAMP levels at 10 uM by HTRF assay. A general note: cAMP levels reflect the balance of adenylyl cyclase and phosphodiesterase activity.

For assay [5], the target named is T4, Vasoactive intestinal polypeptide receptor 1 (Homo sapiens) (UniProt P32241).
T4 sequence (whole entry): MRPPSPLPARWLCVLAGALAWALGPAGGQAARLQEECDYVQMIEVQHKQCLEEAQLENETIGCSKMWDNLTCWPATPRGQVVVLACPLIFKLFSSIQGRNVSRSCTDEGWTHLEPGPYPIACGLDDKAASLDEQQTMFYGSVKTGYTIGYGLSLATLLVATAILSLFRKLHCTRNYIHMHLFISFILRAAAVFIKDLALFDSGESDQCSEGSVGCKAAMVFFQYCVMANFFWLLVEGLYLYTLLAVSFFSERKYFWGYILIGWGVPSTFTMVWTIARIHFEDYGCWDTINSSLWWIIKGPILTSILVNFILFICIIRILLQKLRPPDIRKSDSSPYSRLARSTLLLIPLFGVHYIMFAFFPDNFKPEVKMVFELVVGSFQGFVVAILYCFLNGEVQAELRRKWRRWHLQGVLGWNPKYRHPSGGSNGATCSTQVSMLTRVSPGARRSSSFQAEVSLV
In words: Agonist activity at recombinant human VPAC1 receptor at 10 uM by aequorin reporter based assay relative to agonist.

The target of assay [6] is 5-hydroxytryptamine receptor 6 (Homo sapiens) (UniProt P50406). In words: Antagonist activity at recombinant human 5-HT6R assessed as inhibition of agonist-induced cAMP induction at 10 uM by HTRF assay.
5-hydroxytryptamine receptor 6 (Homo sapiens), sequence (P50406 whole entry): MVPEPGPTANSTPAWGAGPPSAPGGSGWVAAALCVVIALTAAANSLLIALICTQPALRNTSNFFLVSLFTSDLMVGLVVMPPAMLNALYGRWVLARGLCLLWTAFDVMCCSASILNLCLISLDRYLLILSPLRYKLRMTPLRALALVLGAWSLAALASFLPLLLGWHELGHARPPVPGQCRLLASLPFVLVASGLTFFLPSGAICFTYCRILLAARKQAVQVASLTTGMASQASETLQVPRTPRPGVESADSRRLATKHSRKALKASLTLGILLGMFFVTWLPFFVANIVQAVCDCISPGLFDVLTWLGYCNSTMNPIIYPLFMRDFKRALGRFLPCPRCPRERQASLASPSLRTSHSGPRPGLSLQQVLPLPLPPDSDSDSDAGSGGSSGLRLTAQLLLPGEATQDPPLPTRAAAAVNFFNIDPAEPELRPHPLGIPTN
Assay [7] deals with 5-hydroxytryptamine receptor 1B (Homo sapiens) (UniProt P28222). In words: Antagonist activity at recombinant human 5-HT1B assessed as inhibition of agonist-induced effect at 10 uM by GTPgamma[35S] binding-based assay. (In general: GTPγS resists hydrolysis and so accumulates on activated G proteins.)
5-hydroxytryptamine receptor 1B (Homo sapiens), sequence (P28222 whole entry): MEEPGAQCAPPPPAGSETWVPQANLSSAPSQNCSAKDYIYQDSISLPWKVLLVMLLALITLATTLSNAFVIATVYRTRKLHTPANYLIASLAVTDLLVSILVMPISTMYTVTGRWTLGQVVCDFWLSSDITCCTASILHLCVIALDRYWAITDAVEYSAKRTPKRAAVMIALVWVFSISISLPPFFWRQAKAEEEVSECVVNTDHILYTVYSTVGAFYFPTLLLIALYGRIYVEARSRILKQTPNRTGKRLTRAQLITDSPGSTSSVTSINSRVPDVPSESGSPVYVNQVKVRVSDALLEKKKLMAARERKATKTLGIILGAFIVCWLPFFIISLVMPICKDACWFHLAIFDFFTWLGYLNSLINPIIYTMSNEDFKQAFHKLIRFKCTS
Assay [8] addresses Adenosine receptor A2a (Homo sapiens) (UniProt P29274). Briefly: Agonist activity at recombinant human adenosine A2A receptor assessed as induction of cAMP levels at 10 uM by HTRF assay relative to agonist.
Assay [9] deals with Delta-type opioid receptor (Homo sapiens) (UniProt P41143). Briefly: Agonist activity at recombinant human delta-type opioid receptor at 10 uM by GTPgamma[35S] binding-based assay relative to agonist.
Delta-type opioid receptor (Homo sapiens), sequence (P41143 whole entry): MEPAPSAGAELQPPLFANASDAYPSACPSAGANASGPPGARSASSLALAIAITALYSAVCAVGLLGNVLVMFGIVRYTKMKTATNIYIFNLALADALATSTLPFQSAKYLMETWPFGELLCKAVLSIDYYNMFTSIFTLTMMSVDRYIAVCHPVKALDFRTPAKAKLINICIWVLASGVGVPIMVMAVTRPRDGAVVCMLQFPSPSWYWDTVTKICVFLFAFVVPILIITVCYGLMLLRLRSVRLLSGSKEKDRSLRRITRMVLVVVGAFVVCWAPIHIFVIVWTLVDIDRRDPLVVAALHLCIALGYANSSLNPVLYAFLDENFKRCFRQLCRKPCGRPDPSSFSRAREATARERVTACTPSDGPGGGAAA
Assay [10] deals with 5-hydroxytryptamine receptor 5A (Homo sapiens) (UniProt P47898). Briefly: Antagonist activity at recombinant human 5-HT5A assessed as inhibition of agonist-induced effect at 10 uM by aequorin reporter based assay.
5-hydroxytryptamine receptor 5A (Homo sapiens), sequence (P47898 whole entry): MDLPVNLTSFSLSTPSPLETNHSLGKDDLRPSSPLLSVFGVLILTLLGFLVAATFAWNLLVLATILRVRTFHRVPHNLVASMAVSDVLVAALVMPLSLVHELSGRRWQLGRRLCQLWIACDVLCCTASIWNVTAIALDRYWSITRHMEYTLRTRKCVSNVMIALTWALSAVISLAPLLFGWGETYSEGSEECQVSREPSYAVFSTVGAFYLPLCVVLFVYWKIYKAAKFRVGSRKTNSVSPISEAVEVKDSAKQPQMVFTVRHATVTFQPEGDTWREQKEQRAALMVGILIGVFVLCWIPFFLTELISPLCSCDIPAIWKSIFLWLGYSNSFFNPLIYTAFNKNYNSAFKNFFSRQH
The target in assay [11] is Histamine H1 receptor (Homo sapiens) (UniProt P35367). Briefly: Agonist activity at recombinant human histamine H1 receptor at 10 uM by aequorin reporter based assay relative to agonist.
Histamine H1 receptor (Homo sapiens), sequence (P35367 whole entry): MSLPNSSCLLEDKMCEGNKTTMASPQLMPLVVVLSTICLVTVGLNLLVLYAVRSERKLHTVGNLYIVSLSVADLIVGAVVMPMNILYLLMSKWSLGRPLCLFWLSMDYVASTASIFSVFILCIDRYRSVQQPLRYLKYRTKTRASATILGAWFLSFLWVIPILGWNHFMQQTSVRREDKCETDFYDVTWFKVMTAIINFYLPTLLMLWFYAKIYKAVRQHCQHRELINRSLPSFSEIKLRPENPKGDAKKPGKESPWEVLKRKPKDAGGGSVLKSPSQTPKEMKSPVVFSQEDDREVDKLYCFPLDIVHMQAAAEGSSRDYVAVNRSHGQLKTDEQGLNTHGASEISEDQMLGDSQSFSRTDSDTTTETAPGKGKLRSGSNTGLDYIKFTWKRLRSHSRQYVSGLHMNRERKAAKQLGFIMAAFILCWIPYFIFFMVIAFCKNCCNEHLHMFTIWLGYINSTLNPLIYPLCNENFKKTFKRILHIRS
In assay [12] the target is T3, 5-hydroxytryptamine receptor 1A (Homo sapiens). In words: Agonist activity at recombinant human 5-HT1A assessed as induction of cAMP levels at 10 uM by HTRF assay relative to agonist.

Adenosine receptor A2a (Homo sapiens), sequence (P29274 whole entry): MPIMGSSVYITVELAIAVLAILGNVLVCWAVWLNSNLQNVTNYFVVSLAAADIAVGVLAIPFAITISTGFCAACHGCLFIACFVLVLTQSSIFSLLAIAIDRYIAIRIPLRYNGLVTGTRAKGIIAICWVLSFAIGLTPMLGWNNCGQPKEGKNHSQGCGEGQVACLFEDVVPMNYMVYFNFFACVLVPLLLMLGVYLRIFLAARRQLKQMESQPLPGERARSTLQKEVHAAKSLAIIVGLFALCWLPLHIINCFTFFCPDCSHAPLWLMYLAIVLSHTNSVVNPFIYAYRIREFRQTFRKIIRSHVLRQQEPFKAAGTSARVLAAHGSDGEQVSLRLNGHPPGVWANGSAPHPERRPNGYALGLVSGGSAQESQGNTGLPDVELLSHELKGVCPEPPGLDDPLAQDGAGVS
D(1A) dopamine receptor (Homo sapiens), sequence (P21728 whole entry): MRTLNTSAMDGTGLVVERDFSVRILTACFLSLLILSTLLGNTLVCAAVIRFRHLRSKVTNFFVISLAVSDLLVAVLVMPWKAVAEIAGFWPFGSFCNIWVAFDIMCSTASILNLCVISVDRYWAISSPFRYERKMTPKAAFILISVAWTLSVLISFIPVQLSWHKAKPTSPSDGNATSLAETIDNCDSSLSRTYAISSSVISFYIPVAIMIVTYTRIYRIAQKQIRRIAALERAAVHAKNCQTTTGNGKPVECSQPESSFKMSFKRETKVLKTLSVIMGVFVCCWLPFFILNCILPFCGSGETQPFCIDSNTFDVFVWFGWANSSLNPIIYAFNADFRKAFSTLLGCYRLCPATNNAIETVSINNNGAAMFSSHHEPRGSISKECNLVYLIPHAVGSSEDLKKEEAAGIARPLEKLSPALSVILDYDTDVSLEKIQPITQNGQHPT

Regarding `CN(CCNC(=O)c1ccc([N+](=O)[O-])cc1)Cc1ccccc1`, the inhibition in [1] was determined as 3%; in [2], 15%; in assay [4], 20%; in [6] it was 3%; in assay [7], 7%; in assay [10], 36%. Further, the Activity was -1% in [3]; 0% in assay [5]; -12% in [8]; 0% in [9]; 0% in [11]; 4% in [12].
